Data as given in patent publication US20160002204A1 (Board of Regents, The University of Texas System, priority 2014, published 2016).

Legend:
[1] = biological target: T1, GLS1 (purified recombinant human GAC) (Homo sapiens, UniProt O94925); experiment: GLS1 enzymatic activity assay (dual-coupled, Amplex UltraRed/resorufin); type: biochemical
T1 sequence (O94925 55-598 isoform O94925-3 limits assumed): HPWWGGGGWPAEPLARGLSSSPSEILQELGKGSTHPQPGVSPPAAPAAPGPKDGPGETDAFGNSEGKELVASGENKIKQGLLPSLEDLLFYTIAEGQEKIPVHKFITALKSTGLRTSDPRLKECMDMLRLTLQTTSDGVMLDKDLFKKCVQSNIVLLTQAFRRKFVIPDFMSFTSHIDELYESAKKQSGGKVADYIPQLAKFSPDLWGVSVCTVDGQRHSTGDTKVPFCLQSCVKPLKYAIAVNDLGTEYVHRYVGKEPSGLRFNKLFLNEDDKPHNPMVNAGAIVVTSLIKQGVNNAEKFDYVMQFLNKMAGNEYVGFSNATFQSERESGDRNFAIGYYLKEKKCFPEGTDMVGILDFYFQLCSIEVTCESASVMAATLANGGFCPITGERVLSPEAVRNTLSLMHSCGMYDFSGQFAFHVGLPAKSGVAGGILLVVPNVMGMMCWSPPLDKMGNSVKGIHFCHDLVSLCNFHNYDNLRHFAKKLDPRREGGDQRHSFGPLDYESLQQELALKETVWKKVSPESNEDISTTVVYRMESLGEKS
Procedure, shortened: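 GAC activity measured by coupling glutamate to glutamate oxidase and HRP, generating resorufin from Amplex UltraRed. Enzyme (2 nM) preincubated with 50 mM potassium phosphate 10 min at room temperature, then inhibitor 10 min; 1 mM glutamine substrate, 1% DMSO. Fluorescence 530/590 nm, kinetic or 20-min endpoint; IC50 from four-parameter logistic fit.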

A549 cells = experiment: A549 proliferation (viability) assay, Cell Titer Fluor, 72 hours; type: cell-based; settings: Homo sapiens
Procedure, shortened: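 Seed A549 at 1000 cells/well and culture 24 h. Add compound (final DMSO 0.5%) and incubate 72 h at 37 °C. Add Cell Titer Fluor, mix 15 min, incubate 30 min, read fluorescence and fit EC50 by four-parameter logistic.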

| Structure (SMILES) | IC50 [1] | EC50 (A549 cells) |
| --- | --- | --- |
| O=C(Cc1ncc(Cl)cc1F)Nc1ccn(CCC(F)Cn2cc(C(=O)NCc3cccc(OC(F)(F)F)c3)nn2)c(=O)c1 (stereo not drawn) [Example 243, 1-(4-{4-[2-(5-chloro-3-fluoropyridin-2-yl)acetamido]-2-oxo-1,2-dihydropyridin-1-yl}-2-fluorobutyl)-N-{[3-(trifluoromethoxy)phenyl]methyl}-1H-1,2,3-triazole-4-carboxamide] | < 100 nM | 100 to 500 nM |
| CC(=O)N1CCC(CC(=O)Nc2ccn(CCC(F)Cn3cc(C(=O)NCc4cccc(OC(F)(F)F)c4)nn3)c(=O)c2)CC1 (stereo not drawn) [Example 244, 1-(4-{4-[2-(1-acetylpiperidin-4-yl)acetamido]-2-oxo-1,2-dihydropyridin-1-yl}-2-fluorobutyl)-N-{[3-(trifluoromethoxy)phenyl]methyl}-1H-1,2,3-triazole-4-carboxamide] | < 100 nM | 500 to 5000 nM |
| CC(C)(C)OC(=O)N1CCCC(CC(=O)Nc2ccn(CCC(F)Cn3cc(C(=O)NCc4cccc(OC(F)(F)F)c4)nn3)c(=O)c2)C1 (stereo not drawn) [Example 245, tert-butyl 3-{[(1-{3-fluoro-4-[4-({[3-(trifluoromethoxy)phenyl]methyl}carbamoyl)-1H-1,2,3-triazol-1-yl]butyl}-2-oxo-1,2-dihydropyridin-4-yl)carbamoyl]methyl}piperidine-1-carboxylate] | < 100 nM | < 100 nM |
| CC(C)(C)OC(=O)N[C@@H]1CCC[C@@H](C(=O)Nc2ccn(CCC(F)Cn3cc(C(=O)NCc4cccc(OC(F)(F)F)c4)nn3)c(=O)c2)C1 (stereo partly drawn) [Example 249, tert-butyl N-[(1R,3R)-3-[(1-{3-fluoro-4-[4-({[3-(trifluoromethoxy)phenyl]methyl}carbamoyl)-1H-1,2,3-triazol-1-yl]butyl}-2-oxo-1,2-dihydropyridin-4-yl)carbamoyl]cyclohexyl]carbamate] | < 100 nM | < 100 nM |

Second part, the compound after the results:

| IC50 [1] | EC50 (A549 cells) | Structure (SMILES) |
| --- | --- | --- |
| < 100 nM | 500 to 5000 nM | O=C(Cc1cccnc1)Nc1ccn(CCC(F)Cn2cc(C(=O)NCc3cccc(OC(F)(F)F)c3)nn2)c(=O)c1 (stereo not drawn) [Example 246, 1-(2-fluoro-4-{2-oxo-4-[2-(pyridin-3-yl)acetamido]-1,2-dihydropyridin-1-yl}butyl)-N-{[3-(trifluoromethoxy)phenyl]methyl}-1H-1,2,3-triazole-4-carboxamide] |
| < 100 nM | 500 to 5000 nM | O=C(Cc1cscn1)Nc1ccn(CCC(F)Cn2cc(C(=O)NCc3cccc(OC(F)(F)F)c3)nn2)c(=O)c1 (stereo not drawn) [Example 247, 1-(2-fluoro-4-{2-oxo-4-[2-(1,3-thiazol-4-yl)acetamido]-1,2-dihydropyridin-1-yl}butyl)-N-{[3-(trifluoromethoxy)phenyl]methyl}-1H-1,2,3-triazole-4-carboxamide] |
| < 100 nM | 500 to 5000 nM | Cc1ccc(CC(=O)Nc2ccn(CCC(F)Cn3cc(C(=O)NCc4cccc(OC(F)(F)F)c4)nn3)c(=O)c2)cn1 (stereo not drawn) [Example 248, 1-(2-fluoro-4-{4-[2-(6-methylpyridin-3-yl)acetamido]-2-oxo-1,2-dihydropyridin-1-yl}butyl)-N-{[3-(trifluoromethoxy)phenyl]methyl}-1H-1,2,3-triazole-4-carboxamide] |
| < 100 nM | 100 to 500 nM | O=C(Cc1ccccn1)Nc1ccn(CCC(F)Cn2cc(C(=O)NCc3cccc(OC(F)(F)F)c3)nn2)c(=O)c1 (stereo not drawn) [Example 250, 1-(2-fluoro-4-{2-oxo-4-[2-(pyridin-2-yl)acetamido]-1,2-dihydropyridin-1-yl}butyl)-N-{[3-(trifluoromethoxy)phenyl]methyl}-1H-1,2,3-triazole-4-carboxamide] |
| < 100 nM | 100 to 500 nM | COc1cccc(CC(=O)Nc2ccn(CCC(F)Cn3cc(C(=O)NCc4cccc(OC(F)(F)F)c4)nn3)c(=O)c2)n1 (stereo not drawn) [Example 251, 1-(2-fluoro-4-{4-[2-(6-methoxypyridin-2-yl)acetamido]-2-oxo-1,2-dihydropyridin-1-yl}butyl)-N-{[3-(trifluoromethoxy)phenyl]methyl}-1H-1,2,3-triazole-4-carboxamide] |
